# From patent US11873298B2, “Compounds and uses thereof” (JANSSEN PHARMACEUTICA NV, priority 2017, dated 2024)
# pIC50: −log10 of the molar value.
# Assays:
# [1] = molecular target: T1, SCD1 (Homo sapiens, UniProt O00767); test: Growth inhibition of humanized yeast strain expressing SCD1 as sole desaturase; type: cell-based; details: humanized yeast strain, 40 h
# T1 construct: host or cells: S. cerevisiae ole1Δ strain (W303 pdr1Δ pdr3Δ background), plasmid pRS316 with TDH3 promoter and CYC1 terminator
# T1 sequence (O00767 1-359): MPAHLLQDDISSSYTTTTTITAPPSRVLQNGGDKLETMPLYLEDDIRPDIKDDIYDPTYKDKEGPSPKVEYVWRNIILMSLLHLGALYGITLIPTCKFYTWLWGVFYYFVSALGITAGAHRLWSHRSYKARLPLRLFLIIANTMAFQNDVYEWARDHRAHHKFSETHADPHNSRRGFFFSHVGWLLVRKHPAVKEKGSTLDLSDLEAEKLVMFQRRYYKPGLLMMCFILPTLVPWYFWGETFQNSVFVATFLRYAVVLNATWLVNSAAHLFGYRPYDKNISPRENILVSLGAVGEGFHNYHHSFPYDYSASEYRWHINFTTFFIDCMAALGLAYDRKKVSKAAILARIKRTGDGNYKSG
# Summary of the method: (§1)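 OD600 growth read-out. ole1Δ yeast, pdr1Δ pdr3Δ, with Ole1/SCD1/SCD5 on a plasmid; SX-Ura media throughout; 2× cell density 0.02 in CSM-Galactose; DMSO compound dilutions; humidified 30° C.; Ole1 stopped at 24 h, SCD1/SCD5 at 40 h.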
# [2] = molecular target: T2, SCD5 (Homo sapiens, UniProt Q86SK9); test: Growth inhibition of humanized yeast strain expressing SCD5 as sole desaturase; type: cell-based; details: humanized yeast strain, 40 h
# T2 construct: host or cells: S. cerevisiae ole1Δ strain (W303 pdr1Δ pdr3Δ background), plasmid pRS316 with TDH3 promoter and CYC1 terminator
# T2 sequence (Q86SK9 1-330): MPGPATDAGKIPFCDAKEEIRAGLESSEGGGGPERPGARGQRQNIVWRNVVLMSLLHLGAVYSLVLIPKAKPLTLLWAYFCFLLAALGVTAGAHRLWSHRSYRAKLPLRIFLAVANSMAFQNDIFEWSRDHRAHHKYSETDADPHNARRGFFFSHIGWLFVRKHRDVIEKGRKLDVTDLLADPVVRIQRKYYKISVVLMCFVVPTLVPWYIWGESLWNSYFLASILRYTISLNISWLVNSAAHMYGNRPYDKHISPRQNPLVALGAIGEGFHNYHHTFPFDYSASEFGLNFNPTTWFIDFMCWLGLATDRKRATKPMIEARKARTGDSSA
# Summary of the method: as §1
structure (smiles),measurement,setting,value
CC(C)(C)OC(=O)N1CC2(CC(c3noc(-c4ccc5cnn(C6COC6)c5c4)n3)C2)C1 [Compound 1020],pIC50,[1],4.84
same,pIC50,[2],6.77
O=C(C1CC2(CC2)C1)N1CCC(c2noc(-c3ccc4oc(=O)n(C5COC5)c4c3)n2)CC1 [Compound 1021],pIC50,[1],< 4.35
same,pIC50,[2],6.65
CN(c1cc(-c2nc(N3CCN(C(=O)OC(C)(C)C)CC3)no2)ccn1)C1COC1 [Compound 1022],pIC50,[1],< 4.35
same,pIC50,[2],8.00
CC(C)C(=O)N1CCC(c2nc(-c3ccc4cnn(C5COC5)c4c3)no2)CC1 [Compound 1023],pIC50,[1],< 4.35
same,pIC50,[2],6.53
CC(C)C(=O)N1CCC(c2noc(-c3ccc4cnn(C5CCOC5)c4c3)n2)CC1 (stereo not shown) [Compound 1024],pIC50,[1],< 4.35
same,pIC50,[2],8.00
C[C@H]1C[C@@H](c2noc(-c3ccc4cnn(C5COC5)c4c3)n2)CCN1C(=O)OC(C)(C)C [Compound 1025],pIC50,[1],< 4.35
same,pIC50,[2],8.00
CC(C)(C)OC(=O)N1CCC(c2cc(-c3ccc4cnn(C5COC5)c4c3)on2)CC1 [Compound 1026],pIC50,[1],5.40
same,pIC50,[2],6.70
COC(=O)N1CCC(c2cc(-c3ccc4cnn(C5COC5)c4c3)on2)CC1 [Compound 1027],pIC50,[1],< 4.35
same,pIC50,[2],5.50
O=C(N1CCC(c2noc(-c3ccc4cnn(C5CCOC5)c4c3)n2)CC1)C1(F)CCC1 (stereo not shown) [Compound 1028],pIC50,[1],6.02
same,pIC50,[2],8.00
O=C(N1CCC(c2noc(-c3ccc4cnn(C5COC5)c4c3)n2)CC1)C1(F)CCC1 [Compound 1029],pIC50,[1],< 4.35
same,pIC50,[2],8.00
CC(C)(C)OC(=O)N1CCC(c2ccc(-c3ccc4cnn(C5COC5)c4c3)nn2)CC1 [Compound 1030],pIC50,[1],< 4.35
same,pIC50,[2],4.96
COC(=O)N1CCC(c2noc(-c3ccc4oc(=O)n(C5COC5)c4c3)n2)CC1 [Compound 1031],pIC50,[1],< 4.35
same,pIC50,[2],5.95
COC(=O)N1CC2(CC(c3noc(-c4ccc5cnn(C6COC6)c5c4)n3)C2)C1 [Compound 1032],pIC50,[1],< 4.35
same,pIC50,[2],5.39
CC(C)(C)C(=O)N1CC2(CC(c3noc(-c4ccc5cnn(C6COC6)c5c4)n3)C2)C1 [Compound 1033],pIC50,[1],< 4.35
same,pIC50,[2],5.41
COC(=O)N1CCN(c2noc(-c3ccc4cnn(C5COC5)c4c3)n2)CC(F)(F)C1 [Compound 1034],pIC50,[1],< 4.35
same,pIC50,[2],6.19
O=C(CC1CC1)N1CCN(c2noc(-c3ccc4cnn(C5COC5)c4c3)n2)CC(F)(F)C1 [Compound 1035],pIC50,[1],< 4.35
same,pIC50,[2],6.58
COC(=O)N1CCC(c2noc(-c3ccc4ccn(C5COC5)c4c3)n2)CC1 [Compound 1036],pIC50,[1],< 4.35
same,pIC50,[2],8.00
COC(=O)N1CCC(c2noc(-c3ccc4ccn(C(C)C)c4c3)n2)CC1 [Compound 1037],pIC50,[1],4.99
same,pIC50,[2],6.34
CCC(=O)N1CCN(c2noc(-c3ccc4cnn(C5COC5)c4c3)n2)CC(F)(F)C1 [Compound 1038],pIC50,[1],< 4.35
same,pIC50,[2],5.64
CC(C)(C)OC(=O)N1CCC(c2noc(-c3ccc4ccn(C5COC5)c4c3)n2)CC1 [Compound 1039],pIC50,[1],4.80
same,pIC50,[2],8.00
CC(C)c1ncn2ccc(-c3nc(C4CCN(C(=O)OC(C)(C)C)CC4)no3)cc12 [Compound 1040],pIC50,[1],< 4.35
same,pIC50,[2],6.10
CC(C)(C)OC(=O)N1CCC(c2noc(-c3cc(Br)c4cnn(C5COC5)c4c3)n2)CC1 [Compound 1041],pIC50,[1],< 4.35
same,pIC50,[2],8.00
COC(=O)N1CCC(c2noc(-c3ccc4cnn(C5CCCC5)c4c3)n2)CC1 [Compound 1042],pIC50,[1],< 4.35
same,pIC50,[2],7.10
COC(=O)N1CCC(c2noc(-c3cc(Br)c4cnn(C5COC5)c4c3)n2)CC1 [Compound 1043],pIC50,[1],< 4.35
same,pIC50,[2],7.96
O=C(C1CCC1)N1CCC(c2nc(-c3ccc4cnn(C5COC5)c4c3)no2)CC1 [Compound 1044],pIC50,[1],< 4.35
same,pIC50,[2],6.23
COC(=O)N1CCC(c2noc(-c3ccn4cnc(C(C)C)c4c3)n2)CC1 [Compound 1045],pIC50,[1],≤ 4.35
same,pIC50,[2],6.03
O=C(C1CCC1)N1CCN(c2noc(-c3ccc4cnn(C5COC5)c4c3)n2)CC(F)(F)C1 [Compound 1046],pIC50,[1],≤ 4.35
same,pIC50,[2],8.00
CC(C)(C)OC(=O)N1CCC(c2noc(-c3cnc4cnn(C5COC5)c4c3)n2)CC1 [Compound 1047],pIC50,[1],≤ 4.35
same,pIC50,[2],8.00
CC(C)n1ccc2ccc(-c3nc(C4CCN(C(=O)OC(C)(C)C)CC4)no3)cc21 [Compound 1048],pIC50,[1],< 4.35
same,pIC50,[2],7.80
CCC(=O)N1CCC(c2noc(-c3ccc4cnn([C@H]5CCOC5)c4c3)n2)CC1 [Compound 1049],pIC50,[1],< 4.35
same,pIC50,[2],7.92
CCC(=O)N1CCC(c2noc(-c3ccc4cnn([C@@H]5CCOC5)c4c3)n2)CC1 [Compound 1050],pIC50,[1],< 4.35
same,pIC50,[2],7.70
CC(C)n1ncc2ccc(-c3noc(C4CCN(C(C)C(F)(F)F)CC4)n3)cc21 (stereo not shown) [Compound 1051],pIC50,[1],< 4.35
same,pIC50,[2],5.12
COC(=O)N1CCC(c2noc(-c3cnc4cnn(C5COC5)c4c3)n2)CC1 [Compound 1052],pIC50,[1],< 4.35
same,pIC50,[2],6.60
C[C@H]1C[C@H](c2noc(-c3ccc4cnn(C5COC5)c4c3)n2)CCN1C(=O)C1(F)CC1 [Compound 1053],pIC50,[1],< 4.35
same,pIC50,[2],8.93
COC(=O)N1CC[C@@H](c2noc(-c3ccc4cnn(C5COC5)c4c3)n2)C[C@@H]1C [Compound 1054],pIC50,[1],< 4.35
same,pIC50,[2],8.00
CC(C)C(=O)N1CC[C@@H](c2noc(-c3ccc4cnn(C5COC5)c4c3)n2)C[C@@H]1C [Compound 1055],pIC50,[1],< 4.35
same,pIC50,[2],8.31
C[C@H]1C[C@H](c2noc(-c3ccc4cnn(C5COC5)c4c3)n2)CCN1C(=O)C1CCC1 [Compound 1056],pIC50,[1],< 4.35
same,pIC50,[2],8.33
O=C(N1CCN(c2noc(-c3ccc4cnn(C5COC5)c4c3)n2)CC(F)(F)C1)C1(F)CC1 [Compound 1057],pIC50,[1],< 4.35
same,pIC50,[2],7.64
CC(C)C(=O)N1CC[C@H](c2noc(-c3ccc4cnn(C5COC5)c4c3)n2)C[C@H]1C [Compound 1058],pIC50,[1],< 4.35
same,pIC50,[2],8.44
COC(=O)N1CC[C@H](c2noc(-c3ccc4cnn(C5COC5)c4c3)n2)C[C@H]1C [Compound 1059],pIC50,[1],< 4.35
same,pIC50,[2],8.65
CC1(OC(=O)N2CCC(c3noc(-c4ccc5cnn(C6CS(=O)(=O)C6)c5c4)n3)CC2)CC1 [Compound 1060],pIC50,[1],< 4.35
same,pIC50,[2],6.74
O=C(C1CCC1)N1CCC(c2noc(-c3cc(F)c4cnn(C5COC5)c4c3)n2)CC1 [Compound 1061],pIC50,[1],< 4.35
same,pIC50,[2],8.00
O=C(N1CCC(c2noc(-c3cc(F)c4cnn(C5COC5)c4c3)n2)CC1)C1(F)CC1 [Compound 1062],pIC50,[1],4.54
same,pIC50,[2],8.00
COC(=O)N1CC2(C1)CN(c1noc(-c3ccc4cnn(C5COC5)c4c3)n1)C2 [Compound 1063],pIC50,[1],< 4.35
same,pIC50,[2],5.46
COC(=O)N1CCC(c2noc(-c3ccnc(OC4COC4)c3)n2)CC1 [Compound 1064],pIC50,[1],< 4.35
same,pIC50,[2],5.46
C[C@@H]1C[C@@H](c2noc(-c3ccc4cnn(C5COC5)c4c3)n2)CCN1C(=O)C1(F)CC1 [Compound 1065],pIC50,[1],< 4.35
same,pIC50,[2],9.41
C[C@@H]1C[C@@H](c2noc(-c3ccc4cnn(C5COC5)c4c3)n2)CCN1C(=O)C1CCC1 [Compound 1066],pIC50,[1],< 4.35
same,pIC50,[2],9.17
